From PubChem BioAssay (NCI)
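Compound exposure: 48 hours, 5 concentrations, 96-well plates. Here, GI50 denotes the concentration required for 50% inhibition of growth. The concentration for full growth arrest is given as TGI.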

What was measured:
Assay in all cases: growth of human tumour cells (NCI), 48 h
OVCAR-8 ovarian = test system: OVCAR-8 ovarian
OVCAR-5 ovarian = test system: OVCAR-5 ovarian
786-0 renal = test system: 786-0 renal
SK-MEL-5 melanoma = test system: SK-MEL-5 melanoma
OVCAR-4 ovarian = test system: OVCAR-4 ovarian
MALME-3M melanoma = test system: MALME-3M melanoma
SK-OV-3 ovarian = test system: SK-OV-3 ovarian
UO-31 renal = test system: UO-31 renal
SNB-19 CNS = test system: SNB-19 CNS
SK-MEL-28 melanoma = test system: SK-MEL-28 melanoma

Compound | GI50 (OVCAR-8 ovarian) [µM] | TGI (OVCAR-8 ovarian) [µM] | GI50 (OVCAR-5 ovarian) [µM] | TGI (OVCAR-5 ovarian) [µM] | GI50 (786-0 renal) [µM] | TGI (786-0 renal) [µM] | GI50 (SK-MEL-5 melanoma) [µM] | TGI (SK-MEL-5 melanoma) [µM] | GI50 (OVCAR-4 ovarian) [µM] | TGI (OVCAR-4 ovarian) [µM] | GI50 (MALME-3M melanoma) [µM] | TGI (MALME-3M melanoma) [µM] | GI50 (SK-OV-3 ovarian) [µM] | TGI (SK-OV-3 ovarian) [µM] | GI50 (UO-31 renal) [µM] | TGI (UO-31 renal) [µM] | GI50 (SNB-19 CNS) [µM] | TGI (SNB-19 CNS) [µM] | GI50 (SK-MEL-28 melanoma) [µM] | TGI (SK-MEL-28 melanoma) [µM]
CC(=O)Nc1ccc2c(c1)c(C1=C(c3cn(C)c4ccccc34)C(=O)NC1=O)cn2C | 2.68 | > 25 | > 25 | > 25 | 1.28 | > 25 | 1.45 | > 25 | 2.54 | > 17.6 | > 9.93 | > 25 | 1.22 | > 25 | 1.16 | > 25 | > 18.2 | > 25 | 3.62 | > 25
O=C1CC(O)C=C1Nc1ccc(Cl)cc1 (stereo not given) |  | > 100 |  | > 100 |  | > 100 |  | > 100 |  | > 100 |  | > 100 |  | > 100 |  | > 100 |  | > 100 |  | > 100
Cc1nc2c(nc1C)C(=O)c1cc(O)ccc1C2=O |  | > 100 |  | > 100 |  | > 100 |  | 29.6 |  | > 100 |  | 43.7 |  | > 100 |  | > 100 |  | > 100 |  | > 100
CCOc1ccccc1NC(=O)C(=O)CC(=O)c1c(C)n([O-])c2ccccc2[n+]1=O |  | > 100 |  | > 100 |  | > 100 |  | > 100 |  | > 100 |  | > 100 |  | > 100 |  | > 100 |  | > 100 |  | > 100
O=[N+]([O-])C1C(c2ccccc2)C12c1ccccc1-c1ccccc12 (stereo not given) | 0.645 | > 24.3 | 4.65 | > 51.8 | 0.59 | 14.2 | 0.515 | 9.48 | 3.56 | > 100 | 15 | 37.8 | 1.84 | > 41.1 | 2.06 | 18.8 | 12.4 | > 100 | 4.18 | 22.5
Cc1c2c(nn1-c1ccc(S(=O)(=O)NC(=S)Nc3ccccc3)cc1)-c1ccccc1CC2 | > 50 | > 50 | > 50 | > 50 | 26.4 | > 50 | > 50 | > 50 | > 50 | > 50 | 1.15 | > 50 | > 50 | > 50 | > 50 | > 50 | > 50 | > 50 | > 50 | > 50
COc1cc([C@H]2c3cc4c(cc3O[C@@]3(O)COC(=O)[C@@H]23)OCO4)cc(OC)c1OC |  | > 100 |  | > 100 |  | > 100 |  | > 100 |  | > 100 |  | > 100 |  | > 100 |  | > 100 |  | > 100 |  | > 100
C=C1CC2(OC1=O)C(=O)N(CCCCCCCN1C(=O)C3(CC(=C)C(=O)O3)c3ccccc31)c1ccccc12 (stereo not given) | 1.16 | 5.05 | 7.09 | 14.2 | 1.49 | 5.42 | 7.11 | 13.7 | 2.01 | 7.6 | 0.955 | 2.09 | 9.97 | 37.8 | 3.44 | 9.95 | 8.52 | 22 | 1.94 | 7.3
